Entries after “also recorded” stand apart in the source; their conditions may differ.
Legend:
Levopimaradiene synthase = target: T1, Levopimaradiene synthase (Ginkgo biloba, UniProt Q947C4); experiment: levopimaradiene synthase activity towards geranyl diphosphate and farnesyl diphosphate; type: biochemical; conditions: E. coli expression, 200 μM substrate, overnight at 32° C., GC or GC/MS
T1 construct: thioredoxin (from pET32c(+)); made in house; host or cells: E. coli BL21(DE3), soluble fraction of the lysate
T1 sequence (Q947C4 60-873): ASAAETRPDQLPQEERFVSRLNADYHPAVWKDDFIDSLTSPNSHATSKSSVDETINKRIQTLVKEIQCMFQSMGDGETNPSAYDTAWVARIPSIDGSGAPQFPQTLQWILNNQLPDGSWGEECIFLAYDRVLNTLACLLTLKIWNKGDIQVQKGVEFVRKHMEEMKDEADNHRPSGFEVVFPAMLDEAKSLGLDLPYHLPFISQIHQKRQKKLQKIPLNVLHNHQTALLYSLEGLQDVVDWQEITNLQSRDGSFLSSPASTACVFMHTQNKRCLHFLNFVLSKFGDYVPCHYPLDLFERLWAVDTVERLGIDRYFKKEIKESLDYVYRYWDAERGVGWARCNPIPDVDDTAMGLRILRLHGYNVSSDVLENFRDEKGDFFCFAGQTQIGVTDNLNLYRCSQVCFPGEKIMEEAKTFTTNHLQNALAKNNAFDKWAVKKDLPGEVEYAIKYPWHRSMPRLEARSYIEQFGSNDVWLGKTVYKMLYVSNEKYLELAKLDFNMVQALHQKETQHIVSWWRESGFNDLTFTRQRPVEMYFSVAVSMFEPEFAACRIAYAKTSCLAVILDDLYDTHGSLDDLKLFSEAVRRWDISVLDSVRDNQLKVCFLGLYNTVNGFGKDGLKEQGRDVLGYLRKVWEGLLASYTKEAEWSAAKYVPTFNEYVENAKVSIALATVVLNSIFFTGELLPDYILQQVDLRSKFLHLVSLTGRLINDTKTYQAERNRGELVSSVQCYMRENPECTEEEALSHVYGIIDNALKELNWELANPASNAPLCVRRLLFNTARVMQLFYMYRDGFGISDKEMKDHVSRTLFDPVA
Experimental: Levopimaradiene synthase was also tested for activity towards 200 μM geranyl diphosphate and farnesyl diphosphate. Cell cultures were induced and lysed as noted above. The soluble fraction of the lysate was incubated overnight at 32° C. with 200 μM substrate in 30 mM HEPES, pH 7.2, 5 mM DTT, 5% glycerol, 2 mM MgCl2 and 500 μM MnCl2, and overlaid with hexane (1 mL).
(§1) All in vitro reactions were extracted 3× with hexane and dried over MgSO4. The reaction was further extracted twice with diethyl ether and dried over MgSO4. Thereafter, the crude lysate was suspended in 100 mM Tris, pH 8.0 containing 2.9 units/mg apyrase (a dephosphorylating agent) and 10 units/μL calf intestinal alkaline phosphatase, incubated at 30° C. for 3 hours, and extracted with diethyl ether as noted above (Croteau and Cane, 1985). The crude reaction mixtures were eluted over SiO2, concentrated, and analyzed by GC and GC/MS.
Gas chromatography spectra were obtained on a Hewlett Packard 6890 Series GC System equipped with an Rtx-5 capillary column (Restek, 30 m×0.25 mm i.d., 0.10 μm df). The following separation conditions and temperature program were employed: injector port 250° C., FID 250° C., split ratio 39:1, helium flow 20 cm/s (0.6 mL/min), 150° C. hold 5 min, increase to 250° C. (5° C./min), hold 5 min. […]

[1] = system: G. biloba seedlings, plants, and trees; conditions: cited from earlier work; for effect on diterpenoid content: cycloartenol synthase inhibitors (Huh, et al., 1993)
[2] = in vitro enzymatic assay of levopimaradiene synthase constructs expressed in E. coli BL21(DE3); type: biochemical, Escherichia coli; conditions: E. coli BL21(DE3), soluble lysate fraction, 20 μM GGDP, overnight at 32° C., GC and GC/MS
Experimental: The desired plasmids were prepared by ligating the mutated gene insert into the similarly digested vectors pET32c(+) (Novagen; Madison, Wis.) and pRS426GAL (Hua, 2000), a multiple copy yeast expression vector. These plasmids was expressed in E. coli BL21(DE3) (Novagen; Madison, Wis.). E. coli cells were grown in Luria-Bertani medium supplemented with 100 μg/mL ampicillin at 37° C. with shaking to OD600 ˜0.6. The following parameters were tested: isopropyl 1-thio-β-D-galactopyranoside (IPTG) concentration (50, 100, 250, 500, and 1000 μM); and temperature and time (20° C. for 2, 3, 4, 6, 21 hours, 22° C. for 6, 8, 16, 19, 22, 45 hours, and 30° C. for 3, 6 hours). The following assay conditions were tested to obtain maximum diterpene product yield: 30 mM HEPES (N-2-hydroxyethylpiperazine-N′-[…]), pH 6.9, 7.2, 7.6, 8.0; 30 mM Tris (tris(hydroxymethyl)aminomethane hydrochloride), pH 7.4, 7.8, 8.2; 1, 5, 10% glycerol; 1, 3, 5, 10, 20 mM DTT (dithiothreitol); 20 mM β-mercaptoethanol; 2, 5, 8% Triton X-100; 5% Tween 80; 0, 2, 7.5, 20, 50 mM MgCl2; 0, 30, 500, 1000 μM MnCl2; 2, 10, 13.3, 20, 40, 80, 200 μM GGDP; and 23° C. and 32° C. assay temperatures.
Optimal soluble protein production and diterpene yield were obtained with the following conditions. Cell cultures were induced with 1 mM IPTG at 20° C. with shaking for 6 hours and lysed by sonication in 30 mM HEPES, pH 7.2, 5 mM DTT, and 5% glycerol. The soluble fraction of the lysate (100 mg/mL) was incubated with 20 μM GGDP in 30 mM HEPES, pH 7.2, 5 mM DTT, 5% glycerol, 2 mM MgCl2, and 500 μM MnCl2 overnight at 32° C.
as §1
(§2) Gas chromatography spectra were obtained on a Hewlett Packard 6890 Series GC System equipped with an Rtx-5 capillary column (Restek, 30 m×0.25 mm i.d., 0.10 μm df). The following separation conditions and temperature program were employed: injector port 250° C., FID 250° C., split ratio 39:1, helium flow 20 cm/s (0.6 mL/min), 150° C. hold 5 min, increase to 250° C. (5° C./min), hold 5 min. GC/MS spectra were obtained on a Hewlett-Packard 5890A instrument with a 30-m DB-5 ms column (J&W Scientific Inc., 0.25 mm i.d., 0.10 μm df). The following separation conditions and temperature program were employed: injector port 280° C., transfer lines: 280° C., helium flow at 30 cm/s (1 mL/min) with splitless injection at 150° C. hold 3 min, increase to 250° C. (5° C./min), hold 5 min. Mass spectra (m/z 50 to 500) were obtained on a VG ZAB-HF reverse-geometry double-focusing instrument at 70 eV with an electron-impact ion source (200° C.). Accelerating voltage was set to 8 kV and the resolution was 1000 (10% valley).
The skilled artisan recognizes that lysis and assay conditions should be optimized. Examples of parameters that can be adjusted to optimize conditions include altering buffer, pH, reductant, reductant concentration, metal cofactors, cofactor concentrations, glycerol concentrations, substrate concentrations, and assay temperatures. […] Maximum soluble protein production and diterpene yield were obtained with the following conditions. Cell cultures were induced with 1 mM IPTG at 20° C. with shaking for 6 hours and lysed by sonication in 30 mM HEPES, pH 7.2, 5 mM DTT, and 5% glycerol. The soluble fraction of the lysate (100 mg/1 mL) was incubated with 20 μM GGDP in 30 mM HEPES, pH 7.2, 5 mM DTT, 5% glycerol, 2 mM MgCl2, and 500 μM MnCl2 overnight at 32° C. […]

[3] = in vitro assay of levopimaradiene synthase constructs expressed in wild-type S. cerevisiae JBY575; type: biochemical, Saccharomyces cerevisiae; conditions: wild-type S. cerevisiae JBY575, galactose 48 hours, lysate with GGDP
Experimental: Expression in S. cerevisiae JBY575, which represents wild-type yeast, was observed. JBY575 cells transformed with pRS426GAL inserted with the putative levopimaradiene synthase were grown in synthetic complete medium lacking uracil and supplemented with 2% glucose and 1.5% agar at 30° C. to saturation and induced with galactose for 48 hours. Cells were harvested, resuspended in lysis buffer, and mixed by vortexing over glass beads. The lysate was assayed with 60 μM GGDP in the presence and absence of 0.2% and 5% Triton X-100.
as §1, §2
The skilled artisan recognizes that lysis and assay conditions should be optimized. Examples of parameters that can be adjusted to optimize conditions include altering buffer, pH, reductant, reductant concentration, metal cofactors, cofactor concentrations, glycerol concentrations, substrate concentrations, and assay temperatures. […] Maximum soluble protein production and diterpene yield were obtained with the following conditions. Cell cultures were induced with 1 mM IPTG at 20° C. with shaking for 6 hours and lysed by sonication in 30 mM HEPES, pH 7.2, 5 mM DTT, and 5% glycerol. The soluble fraction of the lysate (100 mg/1 mL) was incubated with 20 μM GGDP in 30 mM HEPES, pH 7.2, 5 mM DTT, 5% glycerol, 2 mM MgCl2, and 500 μM MnCl2 overnight at 32° C. Yeast expression was induced with galactose at 30° C. for 48 hours and the cells were lysed and assayed according to the conditions noted.

EHY18 yeast cells = experiment: in vivo expression of GbLS constructs in yeast strain EHY18 that accumulates GGDP, GC quantitation of products; type: cell-based; conditions: GC, GC/MS
Experimental: The yeast strain of the copending application employed was EHY18 (Hart, E., 2001) which was further transformed with multiple-copy yeast expression vectors comprising an isolated and purified nucleic acid sequence of GbLS or derivatives thereof, which are described herein under control of the GAL1 inducible promoter. Yeast cells were grown to saturation in 5 mL ScD-Leu-Ura at 30° C. Cells were harvested (1300×g, 2 min, 25° C.) and resuspended in 500 μL sterile Milli-Q H2O (2×). The washed cells were resuspended in 5 mL sterile Milli-Q H2O. An aliquot of the culture (5 μL) was added to a 25 mL Corex tube containing pre-prepared 2× resin and 5 mL ScG-Leu-Ura (4% galactose) and shaken at 30° C. for 6 days. Resin was collected by filtration through a Kontes chromatography column (1.7 cm diameter) and rinsed with dI H2O until eluent was clear. The resin was incubated in 2 mL ethanol for several minutes, eluted, and repeated 2×. The combined eluents were dissolved in approximately 3 mL dI H2O and extracted (3×) with 3 mL hexane. The combined extracts were concentrated under a stream of nitrogen. GC analysis (quantitation extrapolated from 0.2 mg/mL longifolene external standard) indicated the following product profile (obtained from triplicate measurement of three cultures): 0.61±0.20 mg/L levopimaradiene, 0.04±0.01 mg/L abietadiene, 0.15±0.05 mg/L abietatriene, 0.16±0.13 mg/L (+)-copalol, and 1.79±0.90 mg/L geranylgeraniol. GC/MS fragmentation confirmed the identity of each compound.
A large scale culture (1-L) was prepared by growing the yeast cells to saturation in 5 mL ScD-Leu-Ura at 30° C. Cells were harvested (1300×g, 2 min, 25° C.) and resuspended in 500 μL sterile Milli-Q H2O (2×). The washed cells were resuspended in 5 mL sterile Milli-Q H2O. An aliquot of the culture (1 mL) was added to a 2 L flask containing 1-L ScG-Leu-Ura (4% galactose) and 88.27 g resin in 120 mL Milli-Q H2O (pre-prepared). The resin was eluted with ethanol (3×100 mL with 20 min incubation periods), which was subsequently extracted (6×) with hexane. The combined extracts were dried over magnesium sulfate, filtered, and concentrated under reduced pressure. GC analysis (quantitation extrapolated from 0.2 mg/mL longifolene external standard) indicated the following product profile (obtained from triplicate measurement): 0.29±0.04 mg/L levopimaradiene, 0.04±0.02 mg/L abietadiene, 0.13±0.04 mg/L abietatriene, 0.11±0.02 mg/L (+)-copalol, and 0.56±0.03 mg/L geranylgeraniol. GC/MS analyses confirmed the production of the above noted diterpenes, which included hydrocarbons and an alcohol.
Further optimization studies employed the Ser61 construct. Factors influencing diterpene production included induction period and concentration of galactose and resin in the inducing medium.

Q: Which “terpene formation from alternative substrate” value (Levopimaradiene synthase) does the source give for `CC(C)=CCC/C(C)=C/COP(=O)(O)OP(=O)(O)O` [geranyl diphosphate] here?
A: did not produce any identifiable terpenes

Q: For fluridone, which increase in ginkgolides ([1]; application to G. biloba (Huh, et al., 1993)) is on record?
A: up to 78%

Q: Which “effect on diterpenoid content” value [1] does the source give for `COc1ccc(C(O)(c2cncnc2)C2CC2)cc1` (stereo not shown) [ancymidol] here?
A: Variable results

Q: For `Cc1cc(OC(=O)N2CCCCC2)c(C(C)C)cc1[N+](C)(C)C.[Cl-]` [AMO-1618], which “effect on diterpenoid content” value [1] is on record?
A: Variable results

B1: Phe^129: Ginkgo biloba levopimaradiene synthase truncated at Cys^127-Met^128, referred to as Phe^129; SEQ.ID.NO:39 (protein, listed as Ginkgo biloba)
chain: MFQSMGDGETNPSAYDTAWVARIPSIDGSGAPQFPQTLQWILNNQLPDGSWGEECIFLAYDRVLNTLACLLTLKIWNKGDIQVQKGVEFVRKHMEEMKDEADNHRPSGFEVVFPAMLDEAKSLGLDLPYHLPFISQIHQKRQKKLQKIPLNVLHNHQTALLYSLEGLQDVVDWQEITNLQSRDGSFLSSPASTACVFMHTQNKRCLHFLNFVLSKFGDYVPCHYPLDLFERLWAVDTVERLGIDRYFKKEIKESLDYVYRYWDAERGVGWARCNPIPDVDDTAMGLRILRLHGYNVSSDVLENFRDEKGDFFCFAGQTQIGVTDNLNLYRCSQVCFPGEKIMEEAKTFTTNHLQNALAKNNAFDKWAVKKDLPGEVEYAIKYPWHRSMPRLEARSYIEQFGSNDVWLGKTVYKMLYVSNEKYLELAKLDFNMVQALHQKETQHIVSWWRESGFNDLTFTRQRPVEMYFSVAVSMFEPEFAACRIAYAKTSCLAVILDDLYDTHGSLDDLKLFSEAVRRWDISVLDSVRDNQLKVCFLGLYNTVNGFGKDGLKEQGRDVLGYLRKVWEGLLASYTKEAEWSAAKYVPTFNEYVENAKVSIALATVVLNSIFFTGELLPDYILQQVDLRSKFLHLVSLTGRLINDTKTYQAERNRGELVSSVQCYMRENPECTEEEALSHVYGIIDNALKELNWELANPASNAPLCVRRLLFNTARVMQLFYMYRDGFGISDKEMKDHVSRTLFDPVA
Q: Which results are given for B1?
A: diterpene product on bacterial expression [2]: failed to produce detectable levels of any diterpene; also recorded: complete loss of enzymatic activity; diterpene product on yeast expression [3]: failed to produce observable levels of any diterpene product; also recorded: failed to produce detectable levels of biosynthetic product; diterpene products on expression in EHY18 (EHY18 yeast cells): no diterpene alcohol or hydrocarbon formation
